Data published in PubChem BioAssay (NCI).
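1) Cells in 96-well plates. 2) Compound, 48 h, 5 concentrations. 3) Linear interpolation between surrounding doses. 4) Unreached endpoint = highest concentration. GI50: concentration for 50% inhibition of growth. TGI: concentration producing complete growth inhibition.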

Legend:
Assay in all cases: NCI anticancer screen, dose series, 48 h
COLO 205 colon = system: COLO 205 colon
DU-145 prostate = system: DU-145 prostate
HL-60(TB) leukemia = system: HL-60(TB) leukemia
HOP-62 NSCLC = system: HOP-62 NSCLC
HS 578T breast = system: HS 578T breast
IGROV1 ovarian = system: IGROV1 ovarian
K-562 leukemia = system: K-562 leukemia
MCF7 breast = system: MCF7 breast
NCI-H226 lung = system: NCI-H226 lung
OVCAR-3 ovarian = system: OVCAR-3 ovarian
OVCAR-8 ovarian = system: OVCAR-8 ovarian
RPMI-8226 leukemia = system: RPMI-8226 leukemia
RXF 393 renal = system: RXF 393 renal
SF-268 CNS = system: SF-268 CNS
SF-295 CNS = system: SF-295 CNS
SK-OV-3 ovarian = system: SK-OV-3 ovarian
SW-620 colon = system: SW-620 colon
UO-31 renal = system: UO-31 renal
786-0 renal = system: 786-0 renal
A498 renal = system: A498 renal
A549 NSCLC = system: A549 NSCLC
ACHN renal = system: ACHN renal
BT-549 breast = system: BT-549 breast
CAKI-1 renal = system: CAKI-1 renal
CCRF-CEM leukemia = system: CCRF-CEM leukemia
EKVX NSCLC = system: EKVX NSCLC
HCC-2998 colon = system: HCC-2998 colon
HCT-116 colon = system: HCT-116 colon
HCT-15 colon = system: HCT-15 colon
HOP-92 NSCLC = system: HOP-92 NSCLC
HT29 colon = system: HT29 colon
KM12 colon = system: KM12 colon
LOX IMVI melanoma = system: LOX IMVI melanoma
M14 melanoma = system: M14 melanoma
MDA-MB-231 breast = system: MDA-MB-231 breast
MDA-MB-435 = system: MDA-MB-435
MOLT-4 leukemia = system: MOLT-4 leukemia
NCI-H23 lung = system: NCI-H23 lung
NCI-H460 lung = system: NCI-H460 lung
NCI-H522 lung = system: NCI-H522 lung
NCI/ADR-RES ovarian = system: NCI/ADR-RES ovarian
OVCAR-4 ovarian = system: OVCAR-4 ovarian
OVCAR-5 ovarian = system: OVCAR-5 ovarian
PC-3 prostate = system: PC-3 prostate
SF-539 CNS = system: SF-539 CNS
SK-MEL-2 melanoma = system: SK-MEL-2 melanoma
SK-MEL-28 melanoma = system: SK-MEL-28 melanoma
SK-MEL-5 melanoma = system: SK-MEL-5 melanoma
SN12C renal = system: SN12C renal
SNB-19 CNS = system: SNB-19 CNS
SNB-75 CNS = system: SNB-75 CNS
TK-10 renal = system: TK-10 renal
U251 CNS = system: U251 CNS
UACC-257 melanoma = system: UACC-257 melanoma
UACC-62 melanoma = system: UACC-62 melanoma

Compound: CC(=O)O[C@H]1CC2C(C3CCC(C(C)CCC(N)=O)[C@]31C)[C@H](OC(C)=O)C[C@@H]1CC3(CC[C@]21C)OOC1(CC[C@]2(C)C4C[C@H](OC(C)=O)[C@]5(C)C(C(C)CCC(N)=O)CCC5C4[C@H](OC(C)=O)C[C@@H]2C1)OO3 (stereo partly specified)
- TGI (COLO 205 colon): 2840 nM
- TGI (DU-145 prostate): 3.49 µM
- TGI (HL-60(TB) leukemia): 4.19 µM
- TGI (HOP-62 NSCLC): 3.86 µM
- TGI (HS 578T breast): 4.55 µM
- TGI (IGROV1 ovarian): 3.28 µM
- TGI (K-562 leukemia): > 100 µM
- TGI (MCF7 breast): 4.08 µM
- TGI (NCI-H226 lung): 2.79 µM
- TGI (OVCAR-3 ovarian): 2.85 µM
- TGI (OVCAR-8 ovarian): 3.66 µM
- TGI (RPMI-8226 leukemia): > 100 µM
- TGI (RXF 393 renal): 3.34 µM
- TGI (SF-268 CNS): 3.37 µM
- TGI (SF-295 CNS): 3.2 µM
- TGI (SK-OV-3 ovarian): 3.95 µM
- TGI (SW-620 colon): > 100 µM
- TGI (UO-31 renal): 2.36 µM

Compound: ClCc1ccccc1Cn1cnc2ncnc(Cl)c21
- GI50 (786-0 renal): 4.02 µM
- TGI (786-0 renal): 12.8 µM
- GI50 (A498 renal): 18.6 µM
- TGI (A498 renal): 32.8 µM
- GI50 (A549 NSCLC): 4.44 µM
- TGI (A549 NSCLC): 23.9 µM
- GI50 (ACHN renal): 2000 nM
- TGI (ACHN renal): 4.27 µM
- GI50 (BT-549 breast): 2450 nM
- TGI (BT-549 breast): 6.09 µM
- GI50 (CAKI-1 renal): 2360 nM
- TGI (CAKI-1 renal): 4.21 µM
- GI50 (CCRF-CEM leukemia): 1450 nM
- TGI (CCRF-CEM leukemia): 3.53 µM
- GI50 (COLO 205 colon): 4.33 µM
- TGI (COLO 205 colon): > 100000 nM
- GI50 (DU-145 prostate): 2930 nM
- TGI (DU-145 prostate): 10.1 µM
- GI50 (EKVX NSCLC): 5.33 µM
- TGI (EKVX NSCLC): 17.6 µM
- GI50 (HCC-2998 colon): 2260 nM
- TGI (HCC-2998 colon): 4.22 µM
- GI50 (HCT-116 colon): 1500 nM
- TGI (HCT-116 colon): 4.11 µM
- GI50 (HCT-15 colon): 1360 nM
- TGI (HCT-15 colon): 2910 nM
- GI50 (HOP-62 NSCLC): 11.1 µM
- TGI (HOP-62 NSCLC): 29 µM
- GI50 (HOP-92 NSCLC): 4.38 µM
- TGI (HOP-92 NSCLC): 12.8 µM
- GI50 (HS 578T breast): 2290 nM
- TGI (HS 578T breast): 5.96 µM
- GI50 (HT29 colon): 3.93 µM
- TGI (HT29 colon): > 100 µM
- GI50 (IGROV1 ovarian): 4.28 µM
- TGI (IGROV1 ovarian): 22.7 µM
- GI50 (K-562 leukemia): 2230 nM
- TGI (K-562 leukemia): 5.86 µM
- GI50 (KM12 colon): 3.6 µM
- TGI (KM12 colon): 11.3 µM
- GI50 (LOX IMVI melanoma): 1340 nM
- TGI (LOX IMVI melanoma): 3.07 µM
- GI50 (M14 melanoma): 1920 nM
- TGI (M14 melanoma): 5.17 µM
- GI50 (MCF7 breast): 3.64 µM
- TGI (MCF7 breast): > 100 µM
- GI50 (MDA-MB-231 breast): 2780 nM
- TGI (MDA-MB-231 breast): 6.97 µM
- GI50 (MDA-MB-435): 1950 nM
- TGI (MDA-MB-435): 3.84 µM
- GI50 (MOLT-4 leukemia): 1650 nM
- TGI (MOLT-4 leukemia): 4.24 µM
- GI50 (NCI-H226 lung): 3.35 µM
- TGI (NCI-H226 lung): 7.89 µM
- GI50 (NCI-H23 lung): 4.97 µM
- TGI (NCI-H23 lung): 17.6 µM
- GI50 (NCI-H460 lung): 13.5 µM
- TGI (NCI-H460 lung): 60.9 µM
- GI50 (NCI-H522 lung): 2830 nM
- TGI (NCI-H522 lung): 7.64 µM
- GI50 (NCI/ADR-RES ovarian): 2100 nM
- TGI (NCI/ADR-RES ovarian): 4.47 µM
- GI50 (OVCAR-3 ovarian): 2060 nM
- TGI (OVCAR-3 ovarian): 4.16 µM
- GI50 (OVCAR-4 ovarian): 4.94 µM
- TGI (OVCAR-4 ovarian): 20.5 µM
- GI50 (OVCAR-5 ovarian): 2840 nM
- TGI (OVCAR-5 ovarian): 7.3 µM
- GI50 (OVCAR-8 ovarian): 2740 nM
- TGI (OVCAR-8 ovarian): 8.74 µM
- GI50 (PC-3 prostate): 4.51 µM
- TGI (PC-3 prostate): 19.2 µM
- GI50 (RPMI-8226 leukemia): 2090 nM
- TGI (RPMI-8226 leukemia): 5.45 µM
- GI50 (RXF 393 renal): 1650 nM
- TGI (RXF 393 renal): 6.5 µM
- GI50 (SF-268 CNS): 4.76 µM
- TGI (SF-268 CNS): 24.4 µM
- GI50 (SF-295 CNS): 7.93 µM
- TGI (SF-295 CNS): 20.5 µM
- GI50 (SF-539 CNS): 2350 nM
- TGI (SF-539 CNS): 4.98 µM
- GI50 (SK-MEL-2 melanoma): 4.2 µM
- TGI (SK-MEL-2 melanoma): 19.7 µM
- GI50 (SK-MEL-28 melanoma): 4.47 µM
- TGI (SK-MEL-28 melanoma): 18.7 µM
- GI50 (SK-MEL-5 melanoma): 1370 nM
- TGI (SK-MEL-5 melanoma): 4.12 µM
- GI50 (SK-OV-3 ovarian): 7.57 µM
- TGI (SK-OV-3 ovarian): 26.8 µM
- GI50 (SN12C renal): 2960 nM
- TGI (SN12C renal): 8.5 µM
- GI50 (SNB-19 CNS): 7.3 µM
- TGI (SNB-19 CNS): > 100 µM
- GI50 (SNB-75 CNS): 11.3 µM
- TGI (SNB-75 CNS): 26.6 µM
- GI50 (SW-620 colon): 2240 nM
- TGI (SW-620 colon): 4.72 µM
- GI50 (TK-10 renal): 3.5 µM
- TGI (TK-10 renal): 9.57 µM
- GI50 (U251 CNS): 1920 nM
- TGI (U251 CNS): 4.4 µM
- GI50 (UACC-257 melanoma): 5.88 µM
- TGI (UACC-257 melanoma): 22.1 µM
- GI50 (UACC-62 melanoma): 1880 nM
- TGI (UACC-62 melanoma): 5.12 µM
- GI50 (UO-31 renal): 3.22 µM
- TGI (UO-31 renal): 10.7 µM
